Target: human APJ receptor (Homo sapiens (Human), UniProt P35414)
Assay: biochemical
Assay type: biochemical
Conditions: read-out: Activity hAPJ SPA EC50 IP
Procedure: The human APJ receptor was cloned by polymerase chain reaction and the gene encoding the receptor was subcloned in pFLAG-CMV™-3 expression vector (Sigma, Saint Louis, Mo. USA) in-house at Amgen. A GTPγS binding assay was performed on membranes prepared from CHO cells stably expressing human APJ receptor. The optimum experimental conditions for the concentrations of GDP, MgCl2, and NaCl in the assay buffer were initially determined. The assay was performed in assay buffer [20 mM HEPES, pH 7.5, 5 mM MgCl2, and 0.1% (w/v) BSA with 200 mM NaCl, 3 μM GDP] and membranes expressing human APJ receptor/well along with WGA PS beads. The reaction was initiated by addition of 0.2 nM [^35S]GTPγS (Perkin Elmer Life and Analytical Sciences, Waltham USA) in the absence or presence of various ligands and incubated at RT for 90 min. […] All the results presented are means of several independent experiments and analyzed by non-linear regression methods using commercially available program Prism (GraphPad, San Diego, Calif.) to obtain EC50 detailed in Table 58.

Sequence of human APJ receptor (P35414 whole entry): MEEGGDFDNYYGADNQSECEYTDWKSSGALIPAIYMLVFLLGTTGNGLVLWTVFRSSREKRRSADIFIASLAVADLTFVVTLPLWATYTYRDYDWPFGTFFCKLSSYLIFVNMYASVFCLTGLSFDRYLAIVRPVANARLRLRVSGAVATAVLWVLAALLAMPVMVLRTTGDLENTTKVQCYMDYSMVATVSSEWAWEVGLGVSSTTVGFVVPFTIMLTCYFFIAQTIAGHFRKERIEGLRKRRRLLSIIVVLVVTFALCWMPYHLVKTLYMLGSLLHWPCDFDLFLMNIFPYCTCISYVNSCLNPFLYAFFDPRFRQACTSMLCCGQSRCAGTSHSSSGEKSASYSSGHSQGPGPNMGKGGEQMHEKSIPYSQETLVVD

Compared with `COc1cccc(-c2nnc(NS(=O)(=O)[C@@H](C)[C@H](OC)c3ncc(C)cn3)n2-c2c(OC)ccnc2OC)n1` (atropisomer, axis not shown) [Example 636.0, (1R,2S, P)-N-(4-(2,4-dimethoxypyridin-3-yl)-5-(6-methoxypyridin-2-yl)-4H-1,2,4-triazol-3-yl)-1-methoxy-1-(5-methylpyrimidin-2-yl)propane-2-sulfonamide and (1R,2S, M)-N-(4-(2,4-dimethoxypyridin-3-yl)-5-(6-methoxypyridin-2-yl)-4H-1,2,4-triazol-3-yl)-1-methoxy-1-(5-methylpyrimidin-2-yl)propane-2-sulfonamide], `COc1cccc(-c2nnc(NS(=O)(=O)[C@@H](C)[C@H](OC)c3ncc(C)cn3)n2-c2cccnc2OC)n1` (atropisomer, axis not shown) [Example 741.0, (1R,2S)-1-methoxy-N-(5-(6-methoxypyridin-2-yl)-4-(2-methoxypyridin-3-yl)-4H-1,2,4-triazol-3-yl)-1-(5-methylpyrimidin-2-yl)propane-2-sulfonamide] is 7.8-fold higher in EC50: 0.4 nM for the first, 3.1 nM for the second.

First: COc1cccc(F)c1-n1c(NS(=O)(=O)[C@@H](C)[C@H](C)c2ncc(C)cn2)nnc1-c1cncc(C)c1 (atropisomer, axis not shown) [Example 688.0, (2S,3R, P)-N-(4-(2-fluoro-6-methoxyphenyl)-5-(5-methyl-3-pyridinyl)-4H-1,2,4-triazol-3-yl)-3-(5-methyl-2-pyrimidinyl)-2-butanesulfonamide 2,2,2-trifluoroacetate and (2S,3R, M)-N-(4-(2-fluoro-6-methoxyphenyl)-5-(5-methyl-3-pyridinyl)-4H-1,2,4-triazol-3-yl)-3-(5-methyl-2-pyrimidinyl)-2-butanesulfonamide 2,2,2-trifluoroacetate]
Second: COc1ccccc1-n1c(NS(=O)(=O)[C@@H](C)[C@H](C)c2ncc(C)cn2)nnc1-c1cncc(C)c1 (atropisomer, axis not shown) [Example 797.0, (2S,3R, P)-N-(4-(2-methoxyphenyl)-5-(5-methyl-3-pyridinyl)-4H-1,2,4-triazol-3-yl)-3-(5-methyl-2-pyrimidinyl)-2-butanesulfonamide and (2S,3R, M)-N-(4-(2-methoxyphenyl)-5-(5-methyl-3-pyridinyl)-4H-1,2,4-triazol-3-yl)-3-(5-methyl-2-pyrimidinyl)-2-butanesulfonamide]
The EC50 of the first is 3.6-fold lower: 0.66 nM for the first, 2.4 nM for the second. The first is the more potent here.

`COc1cccc(-c2nnc(NS(=O)(=O)[C@@H](C)[C@H](OC)c3ncc(C)cn3)n2-c2cc(C)ccc2OC)n1` (atropisomer, axis not shown; (P)) [Example 40.0, (1R,2S,P)-1-methoxy-N-(4-(2-methoxy-5-methylphenyl)-5-(6-methoxypyridin-2-yl)-4H-1,2,4-triazol-3-yl)-1-(5-methylpyrimidin-2-yl)propane-2-sulfonamide and (1R,2S,M)-1-methoxy-N-(4-(2-methoxy-5-methylphenyl)-5-(6-methoxypyridin-2-yl)-4H-1,2,4-triazol-3-yl)-1-(5-methylpyrimidin-2-yl)propane-2-sulfonamide] and `COc1cccc(-c2nnc(NS(=O)(=O)[C@@H](C)[C@H](OC)c3ncc(C)cn3)n2-c2ccccc2OC)n1` (atropisomer, axis not shown; (P)) [Example 52.0, (1R,2S,P)-1-methoxy-N-(4-(2-methoxyphenyl)-5-(6-methoxy-2-pyridinyl)-4H-1,2,4-triazol-3-yl)-1-(5-methyl-2-pyrimidinyl)-2-propanesulfonamide and (1R,2S,M)-1-methoxy-N-(4-(2-methoxyphenyl)-5-(6-methoxy-2-pyridinyl)-4H-1,2,4-triazol-3-yl)-1-(5-methyl-2-pyrimidinyl)-2-propanesulfonamide] are within 1.5-fold of each other in EC50: 4.7 nM for the first, 4.2 nM for the second.

Compared with `COc1cccc(-c2nnc(NS(=O)(=O)[C@@H](C)[C@H](OC)c3ncc(C)cn3)n2-c2cccc(Cl)c2C)n1` (atropisomer, axis not shown; (P)) [Example 55.0, (1R,2S,P)-N-(4-(3-chloro-2-methylphenyl)-5-(6-methoxy-2-pyridinyl)-4H-1,2,4-triazol-3-yl)-1-methoxy-1-(5-methyl-2-pyrimidinyl)-2-propanesulfonamide and (1R,2S,M)-N-(4-(3-chloro-2-methylphenyl)-5-(6-methoxy-2-pyridinyl)-4H-1,2,4-triazol-3-yl)-1-methoxy-1-(5-methyl-2-pyrimidinyl)-2-propanesulfonamide], `COc1cccc(-c2nnc(NS(=O)(=O)[C@@H](C)[C@H](OC)c3ncc(C)cn3)n2-c2cccc(C)c2C)n1` (atropisomer, axis not shown; (P)) [Example 70.0, (1R,2S,P)-N-(4-(2,3-dimethylphenyl)-5-(6-methoxy-2-pyridinyl)-4H-1,2,4-triazol-3-yl)-1-methoxy-1-(5-methyl-2-pyrimidinyl)-2-propanesulfonamide and (1R,2S,M)-N-(4-(2,3-dimethylphenyl)-5-(6-methoxy-2-pyridinyl)-4H-1,2,4-triazol-3-yl)-1-methoxy-1-(5-methyl-2-pyrimidinyl)-2-propanesulfonamide] is 6.5-fold lower in EC50: 17 nM for the first, 2.6 nM for the second. The second is the more potent here.

First: COc1cccc(-c2nnc(NS(=O)(=O)[C@@H](C)[C@H](OC)c3ncc(C)cn3)n2-c2ccccc2C)n1 (atropisomer, axis not shown; (P)) [Example 61.0, (1R,2S,P)-1-methoxy-N-(5-(6-methoxy-2-pyridinyl)-4-(2-methylphenyl)-4H-1,2,4-triazol-3-yl)-1-(5-methyl-2-pyrimidinyl)-2-propanesulfonamide and (1R,2S,M)-1-methoxy-N-(5-(6-methoxy-2-pyridinyl)-4-(2-methylphenyl)-4H-1,2,4-triazol-3-yl)-1-(5-methyl-2-pyrimidinyl)-2-propanesulfonamide]
Second: COc1cccc(-c2nnc(NS(=O)(=O)[C@@H](C)[C@H](OC)c3ncc(C)cn3)n2-c2ccccc2Cl)n1 (atropisomer, axis not shown; (P)) [Example 69.0, (1R,2S,P)-N-(4-(2-chlorophenyl)-5-(6-methoxy-2-pyridinyl)-4H-1,2,4-triazol-3-yl)-1-methoxy-1-(5-methyl-2-pyrimidinyl)-2-propanesulfonamide and (1R,2S,M)-N-(4-(2-chlorophenyl)-5-(6-methoxy-2-pyridinyl)-4H-1,2,4-triazol-3-yl)-1-methoxy-1-(5-methyl-2-pyrimidinyl)-2-propanesulfonamide]
The EC50 of the first is 3.1-fold higher: 6.5 nM for the first, 2.1 nM for the second.

Going from `COc1cccc(-c2nnc(NS(=O)(=O)[C@@H](C)[C@H](OC)c3ncc(C)cn3)n2-c2ccc(F)cc2Cl)n1` (atropisomer, axis not shown; (P)) [Example 67.0, (1R,2S,P)-N-(4-(2-chloro-4-fluorophenyl)-5-(6-methoxy-2-pyridinyl)-4H-1,2,4-triazol-3-yl)-1-methoxy-1-(5-methyl-2-pyrimidinyl)-2-propanesulfonamide and (1R,2S,M)-N-(4-(2-chloro-4-fluorophenyl)-5-(6-methoxy-2-pyridinyl)-4H-1,2,4-triazol-3-yl)-1-methoxy-1-(5-methyl-2-pyrimidinyl)-2-propanesulfonamide] to `COc1cccc(-c2nnc(NS(=O)(=O)[C@@H](C)[C@H](OC)c3ncc(C)cn3)n2-c2ccccc2F)n1` (atropisomer, axis not shown; (P)) [Example 76.0, (1R,2S,P)-N-(4-(2-fluorophenyl)-5-(6-methoxy-2-pyridinyl)-4H-1,2,4-triazol-3-yl)-1-methoxy-1-(5-methyl-2-pyrimidinyl)-2-propanesulfonamide and (1R,2S,M)-N-(4-(2-fluorophenyl)-5-(6-methoxy-2-pyridinyl)-4H-1,2,4-triazol-3-yl)-1-methoxy-1-(5-methyl-2-pyrimidinyl)-2-propanesulfonamide], the EC50 falls from 15 nM to 3 nM (5-fold). The second is the more potent here.

`COc1cccc(-c2nnc(NS(=O)(=O)[C@@H](C)[C@H](OC)c3ncc(C)cn3)n2-c2ccccc2C(F)(F)F)n1` (atropisomer, axis not shown; (P)) [Example 74.0, (1R,2S,P)-1-methoxy-N-(5-(6-methoxy-2-pyridinyl)-4-(2-(trifluoromethyl)phenyl)-4H-1,2,4-triazol-3-yl)-1-(5-methyl-2-pyrimidinyl)-2-propanesulfonamide and (1R,2S,M)-1-methoxy-N-(5-(6-methoxy-2-pyridinyl)-4-(2-(trifluoromethyl)phenyl)-4H-1,2,4-triazol-3-yl)-1-(5-methyl-2-pyrimidinyl)-2-propanesulfonamide] and `COc1cccc(-c2nnc(NS(=O)(=O)[C@H](C)Cc3ncc(F)cn3)n2-c2ccccc2OC)n1` (mixture of isomers) [Example 31.0, (2R)-1-(5-fluoropyrimidin-2-yl)-N-(4-(2-methoxyphenyl)-5-(6-methoxypyridin-2-yl)-4H-1,2,4-triazol-3-yl)propane-2-sulfonamide and (2S)-1-(5-fluoropyrimidin-2-yl)-N-(4-(2-methoxyphenyl)-5-(6-methoxypyridin-2-yl)-4H-1,2,4-triazol-3-yl)propane-2-sulfonamide] are within 1.5-fold of each other in EC50: 2.5 nM for the first, 2.4 nM for the second.

`COc1cccc(-c2nnc(NS(=O)(=O)[C@H](C)Cc3ncc(F)cn3)n2-c2c(C)noc2C)n1` (mixture of isomers) [Example 32.0, (2R)-N-(4-(3,5-dimethylisoxazol-4-yl)-5-(6-methoxypyridin-2-yl)-4H-1,2,4-triazol-3-yl)-1-(5-fluoropyrimidin-2-yl)propane-2-sulfonamide and (2S)-N-(4-(3,5-dimethylisoxazol-4-yl)-5-(6-methoxypyridin-2-yl)-4H-1,2,4-triazol-3-yl)-1-(5-fluoropyrimidin-2-yl)propane-2-sulfonamide] gave an EC50 of 140 nM.

From US10058550B2, “Methods of treating heart failure” (priority 2015, dated 2018)
